Reference: ChEMBL document CHEMBL3885881, “DrugMatrix”

Species on record: Rattus norvegicus
Assay: DrugMatrix - Regimen: Daily Repeat
Type: toxicity, organism-based, Sprague-Dawley
Parameters: regimen Daily Repeat, gender Male, age 6-8 weeks
Conditions: in vivo, po, route oral GAVAGE, vehicle 100 % WATER; for ABSOLUTE BASOPHIL / ABSOLUTE EOSINOPHIL / ABSOLUTE LYMPHOCYTE / ABSOLUTE MONOCYTE / ABSOLUTE SEGMENTED NEUTROPHIL / BASOPHIL / EOSINOPHIL / ERYTHROCYTE COUNT / HEMATOCRIT / HEMOGLOBIN / LEUKOCYTE COUNT / LYMPHOCYTE / MEAN CORPUSCULAR HEMOGLOBIN / MEAN CORPUSCULAR HEMOGLOBIN CONCENTRATION / NEUTROPHIL / NUCLEATED RED BLOOD CELLS / PLATELET COUNT: tissue Blood; for ALANINE AMINOTRANSFERASE / ALBUMIN / ALKALINE PHOSPHATASE / ASPARTATE AMINOTRANSFERASE / BLOOD UREA NITROGEN / CARBON DIOXIDE / CHLORIDE / CHOLESTEROL / CREATINE PHOSPHOKINASE / CREATININE / GLUCOSE / LACTATE DEHYDROGENASE / LIPASE / PHOSPHORUS / POTASSIUM / SODIUM / TOTAL BILIRUBIN / TOTAL PROTEIN / URIC ACID: tissue Plasma
[1] = 94 mg/kg, 120 h, dose level High, time 5 day
[2] = […], 72 h, dose 2.3 mg/Kg, dose level Low, time 3 day
[3] = […], 120 h, dose 2.3 mg/Kg, dose level Low, time 5 day

CN1[C@@H]2CC[C@H]1C[C@@H](OC(=O)C(CO)c1ccccc1)C2 (stereo partly drawn) [ATROPINE]
ABSOLUTE BASOPHIL [1]: 0 CELLS/uL
ABSOLUTE EOSINOPHIL [1]: 26.33 CELLS/uL
ABSOLUTE LYMPHOCYTE [1]: 8136 CELLS/uL
ABSOLUTE MONOCYTE [1]: 82.33 CELLS/uL
ABSOLUTE SEGMENTED NEUTROPHIL [1]: 555.33 CELLS/uL
BASOPHIL [1]: 0%
EOSINOPHIL [1]: 0.33%
ERYTHROCYTE COUNT [1]: 5.33 x10E6/uL
HEMATOCRIT [1]: 35.2%
HEMOGLOBIN [1]: 13.4 G/DL
LEUKOCYTE COUNT [1]: 8.8 x10E3/uL
LYMPHOCYTE [1]: 92.33%
MEAN CORPUSCULAR HEMOGLOBIN [1]: 25.13 pg
MEAN CORPUSCULAR HEMOGLOBIN CONCENTRATION [1]: 38.07 G/DL
NEUTROPHIL [1]: 6.33%
NUCLEATED RED BLOOD CELLS [1]: 0.33 /100WBC
PLATELET COUNT [1]: 1133.67 x10E3/uL
ALANINE AMINOTRANSFERASE [1]: 73.67 u/L
ALBUMIN [1]: 4.13 G/DL
ALKALINE PHOSPHATASE [1]: 335 u/L
ASPARTATE AMINOTRANSFERASE [1]: 106.67 u/L
BLOOD UREA NITROGEN [1]: 13 mg/dL
CARBON DIOXIDE [1]: 32 mmol/L
CHLORIDE [1]: 99.67 MEQ/L
CHOLESTEROL [1]: 52.33 mg/dL
CREATINE PHOSPHOKINASE [1]: 367.67 u/L
CREATININE [1]: 0.1 mg/dL
GLUCOSE [1]: 155 mg/dL
LACTATE DEHYDROGENASE [1]: 214.33 u/L
LIPASE [1]: 11 u/L
PHOSPHORUS [1]: 9.67 mg/dL
POTASSIUM [1]: 5.56 MEQ/L
SODIUM [1]: 143.2 MEQ/L
TOTAL BILIRUBIN [1]: 0.17 mg/dL
TOTAL PROTEIN [1]: 6.03 G/DL
URIC ACID [1]: 0.37 mg/dL
ABSOLUTE BASOPHIL [2]: 0 CELLS/uL
ABSOLUTE EOSINOPHIL [2]: 0 CELLS/uL
ABSOLUTE LYMPHOCYTE [2]: 12169.33 CELLS/uL
ABSOLUTE MONOCYTE [2]: 203.67 CELLS/uL
ABSOLUTE SEGMENTED NEUTROPHIL [2]: 1660.33 CELLS/uL
BASOPHIL [2]: 0%
EOSINOPHIL [2]: 0%
ERYTHROCYTE COUNT [2]: 5.43 x10E6/uL
HEMATOCRIT [2]: 34.63%
HEMOGLOBIN [2]: 13.57 G/DL
LEUKOCYTE COUNT [2]: 14.03 x10E3/uL
LYMPHOCYTE [2]: 88%
MEAN CORPUSCULAR HEMOGLOBIN [2]: 25 pg
MEAN CORPUSCULAR HEMOGLOBIN CONCENTRATION [2]: 39.17 G/DL
NEUTROPHIL [2]: 10.67%
NUCLEATED RED BLOOD CELLS [2]: 0 /100WBC
PLATELET COUNT [2]: 1077.33 x10E3/uL
ALANINE AMINOTRANSFERASE [2]: 49 u/L
ALBUMIN [2]: 3.93 G/DL
ALKALINE PHOSPHATASE [2]: 305.33 u/L
ASPARTATE AMINOTRANSFERASE [2]: 82.67 u/L
BLOOD UREA NITROGEN [2]: 10.67 mg/dL
CARBON DIOXIDE [2]: 28.67 mmol/L
CHLORIDE [2]: 99.33 MEQ/L
CHOLESTEROL [2]: 68.67 mg/dL
CREATINE PHOSPHOKINASE [2]: 256.67 u/L
CREATININE [2]: 0.1 mg/dL
GLUCOSE [2]: 142.67 mg/dL
LACTATE DEHYDROGENASE [2]: 161 u/L
LIPASE [2]: 9.33 u/L
PHOSPHORUS [2]: 10.27 mg/dL
POTASSIUM [2]: 6.48 MEQ/L
SODIUM [2]: 141.6 MEQ/L
TOTAL BILIRUBIN [2]: 0.27 mg/dL
TOTAL PROTEIN [2]: 5.63 G/DL
URIC ACID [2]: 0.97 mg/dL
ABSOLUTE BASOPHIL [3]: 0 CELLS/uL
ABSOLUTE EOSINOPHIL [3]: 0 CELLS/uL
ABSOLUTE LYMPHOCYTE [3]: 8930.67 CELLS/uL
ABSOLUTE MONOCYTE [3]: 135.33 CELLS/uL
ABSOLUTE SEGMENTED NEUTROPHIL [3]: 600.67 CELLS/uL
BASOPHIL [3]: 0%
EOSINOPHIL [3]: 0%
ERYTHROCYTE COUNT [3]: 5.39 x10E6/uL
HEMATOCRIT [3]: 35.13%
HEMOGLOBIN [3]: 13.5 G/DL
LEUKOCYTE COUNT [3]: 9.67 x10E3/uL
LYMPHOCYTE [3]: 93%
MEAN CORPUSCULAR HEMOGLOBIN [3]: 25.07 pg
MEAN CORPUSCULAR HEMOGLOBIN CONCENTRATION [3]: 38.43 G/DL
NEUTROPHIL [3]: 6%
NUCLEATED RED BLOOD CELLS [3]: 0 /100WBC
PLATELET COUNT [3]: 1298.67 x10E3/uL
ALANINE AMINOTRANSFERASE [3]: 55.33 u/L
ALBUMIN [3]: 4.07 G/DL
ALKALINE PHOSPHATASE [3]: 274 u/L
ASPARTATE AMINOTRANSFERASE [3]: 83 u/L
BLOOD UREA NITROGEN [3]: 13.67 mg/dL
CARBON DIOXIDE [3]: 34.67 mmol/L
CHLORIDE [3]: 98.33 MEQ/L
CHOLESTEROL [3]: 64.67 mg/dL
CREATINE PHOSPHOKINASE [3]: 318.67 u/L
CREATININE [3]: 0.12 mg/dL
GLUCOSE [3]: 137.67 mg/dL
LACTATE DEHYDROGENASE [3]: 169.67 u/L
LIPASE [3]: 12.33 u/L
PHOSPHORUS [3]: 10 mg/dL
POTASSIUM [3]: 5.77 MEQ/L
SODIUM [3]: 144.13 MEQ/L
TOTAL BILIRUBIN [3]: 0.2 mg/dL
TOTAL PROTEIN [3]: 6.23 G/DL
URIC ACID [3]: 0.37 mg/dL
